The record followed here is PubChem BioAssay AID540258 (Broad Institute, 2011).

Activity calls are given as the source filed them.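 Rule for the calls: active = fitted curve reaching 40% activation at or below the top valid dose tested; inconclusive = flat curve at 30 to 70% activation, or poor fit; inactive = the rest.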 Where only a bound is given, the exact number is not on record here.

The experiment deals with SK-MEL-5 TRPM1 promoter luciferase reporter, 24 h. In words: activation of TRPM1 promoter luciferase in melanoma cells – SK-MEL-5 cells, cherry-pick samples, dose response (AID 540258).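 Note: potency for activators that raise TRPM1 promoter luciferase signal.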
In the case of `O=C(NCCC1=CCCCC1)NC12CC3CC(CC(C3)C1)C2`, the AC40 was 0.703 µM.
With `Clc1ccc(-c2cc(CSc3ccccc3)on2)cc1`, the AC40 was 1.45 µM.
In the case of `c1ccc(-n2ncc3c(NCc4cccs4)ncnc32)cc1`, the AC40 was 2.66 µM.
For `Nc1c(C(=O)N2CCCC2)sc2nc(-c3ccccc3)ccc12`, the AC40 was 6.19 µM.
In the case of `CC(C)c1ccc(/C=N/NC(=O)C2CCCC2)cc1`, the AC40 was 2.44 µM.
Regarding `C/C(=N\OCc1ccc(C#N)cc1)c1ccc(S(=O)(=O)N(C)C)cc1`, the AC40 was > 35 µM (inactive).
The same measure for `CCN(N=O)c1ccc(C=C2C=Cc3ccccc32)cc1`: 0.238 µM.
Consider `Cc1nc(NC(C)C)c2cnn(CCc3ccccc3)c2n1`, for which the AC40 is 7.11 µM.
Take `CC(=O)Nc1cccc(-c2nc3ccc(NC(C)=O)cc3s2)c1`: the AC40 is 1.29 µM.
The same measure for `Cc1ccc(-n2nnc3ccccc3c2=O)cc1C`: 2.62 µM; for `N/C(=N\OC(=O)C1CCCCC1)c1cccc(Br)c1`: 13.5 µM; for `COc1cc(O)c2c(=O)cc(-c3ccccc3)oc2c1`: 14.2 µM.
As for `COc1ccc(COc2ccc3ccc(=O)oc3c2)cc1`, the figure is 1.21 µM.
As for `O=C(NCCc1ccc(O)cc1)c1ccc(Cl)cc1`, the figure is 2.89 µM; as for `CC(C)(C)c1ccc(-c2noc(-c3ccno3)n2)cc1`, 0.472 µM; as for `c1cnc2nc(-c3ccc4c(c3)OCO4)cn2c1`, 13.7 µM.
Take `CC(=O)N1N=C(c2ccc(C)cc2)OC1c1ccc(Br)cc1` (stereo unspecified): the AC40 is 2.83 µM.
With `O=C(Cc1ccccc1)Nc1ccc2c(c1)OC1(CCCC1)O2`, the AC40 was 3.23 µM.
As for `Cc1ccc(OC(=O)c2cccc(S(=O)(=O)N3CCCC3)c2)c(-n2nc3ccccc3n2)c1`, the AC40 was 1.41 µM.
The same measure for `COc1ccccc1Nc1nc(C)cs1`: 22.6 µM; for `c1csc(-c2nc(N3CCCCC3)no2)c1`: 1.44 µM; for `CSc1cccc(NC(=O)c2cnn3ccccc23)c1`: 1.03 µM.
`COc1ccc(Oc2nnc(C)c3ccccc23)cc1`: the AC40 was 2.6 µM.
As for `COc1cccc(C(=O)Nc2nnc(-c3ccccc3)s2)c1`, the figure is 3.57 µM.
Turning to `Cc1cccc(-n2ncc3c(N4CC(C)CC(C)C4)ncnc32)c1` (stereo unspecified), the AC40 was 0.749 µM.
For the compound `COc1ccc(C2Nc3ccccc3C(=O)N2c2ccc(C)cc2)cc1Cn1nnc2ccccc21` (stereo unspecified), the AC40 is 17.2 µM.
As for `CN(C)S(=O)(=O)c1cccc(-c2nnc(-c3ccccc3)o2)c1`, the figure is 8.86 µM.
Regarding `Fc1ccccc1CSc1nnc(-c2ccccc2)o1`, the AC40 was 0.935 µM.
The same measure for `c1ccc(-n2nnc(-c3cccnc3)n2)cc1`: 8.4 µM.
In the case of `O=C(O)c1cc(-c2ccc(-c3c(-c4ccc5c(c4)OCO5)noc3-c3ccsc3)cc2)nc2ccccc12`, the AC40 is 20.3 µM.
As for `COc1ccc(-c2cc3nc4ccccc4n3c(N)c2C#N)cc1`, the AC40 is 1.83 µM.
In the case of `Clc1ccc(COn2nnc3ccccc32)c(Cl)c1`, the AC40 is 0.941 µM.
`COC(=O)Cn1c(C)nc2c(sc3nc(C)cc(C)c32)c1=O`: the AC40 was 2.35 µM.
For `COc1ccc(C(=S)Nc2ccc(C)cc2)cc1`, the AC40 is 2.65 µM.
Consider `CCN=c1scc(-c2ccc(F)cc2)n1/N=C/c1ccccn1`, for which the AC40 is 0.798 µM.
For `CCC(C)NC(=O)c1cn(-c2cccc(C)n2)cn1` (stereo unspecified), the AC40 is 10.6 µM.
The same measure for `O=C(N/N=C/c1ccc(Cl)cc1Cl)c1cccc(F)c1`: 1.95 µM.
Regarding `Cc1cc(C(=O)CN2C(=O)NC3(CCCCC3C)C2=O)c(C)n1Cc1cccs1` (stereo unspecified), the AC40 is 8.17 µM.
As for `Cc1cc(C)c2nc(NCc3ccccc3O)sc2c1`, the figure is 19 µM.
As for `Cc1ccc(N(C)/N=C/c2ccc(Cl)cc2Cl)nn1`, the figure is 34.2 µM; as for `Nc1c(C(=O)C2CC2)sc2nc3c(cc12)CCC3`, 1.92 µM.
As for `Cc1nc(COC(=O)c2c(C)nn(-c3ccccc3)c2C)cs1`, the figure is 21.1 µM; as for `Fc1ccccc1COc1ccc(C(=S)N2CCCC2)cc1`, 4.34 µM.
Regarding `CSc1ccc(-c2nnn(Cc3ccc(C)cc3)n2)cc1`, the AC40 is 5.08 µM.
On to `CCCCSc1nsc(NC(C)=O)n1`, for which the AC40 is 1.28 µM.
As for `COc1ccc(-c2ccc3ccccc3n2)cc1OC`, the figure is 1.38 µM.
The same measure for `O=C(Nc1ccc2c(c1)OCO2)c1cc(-c2ccccc2Cl)on1`: 2.06 µM.
As for `CCCCc1nc2cc(C(=O)N3CCN(c4nc(C)cnc4C)CC3)ccc2o1`, the figure is > 35 µM (inactive); as for `CNC(=O)c1ccc(-c2cc3onc(-c4ccccc4)c3c(=O)n2C)cc1`, 6.96 µM.
With `CCCc1cc(C(=O)Nc2ccc(C(=O)OC)cc2)cs1`, the AC40 is 16.2 µM.
On to `O=c1oc2cc(Cl)ccc2n1CSc1nc2ccccc2s1`, for which the AC40 was 4.25 µM.
The same measure for `CN(CC(=O)Nc1ccccc1Br)C(=O)c1cc2c(s1)CCCCC2`: 3.4 µM; for `CCN(CC)C(=O)c1cc2sc3ccccc3c2s1`: 2.42 µM; for `O=C(NCCc1c[nH]c2ccccc12)c1cc(Cl)c2c(c1)OCO2`: 17 µM.
`Cc1ccc(C2=NN(S(C)(=O)=O)C(c3cccs3)C2)cc1` (stereo unspecified): the AC40 was 2.09 µM.
As for `COc1ccccc1N1CCN(/N=C/c2cccc(Cl)c2)CC1`, the AC40 is 1.45 µM.
Take `Cc1ccc(NC(=O)Nc2ccc3oc(C)nc3c2)cc1`: the AC40 was 1.39 µM.
As for `COc1ccc(-c2cn3cccc(C)c3n2)cc1F`, the AC40 was 0.565 µM.
In the case of `COCc1ccc(-c2c(-c3ccc(OC)cc3)oc(=O)c3cc(OC)c(OC)cc23)cc1`, the AC40 was 3.05 µM.
Regarding `CN1CCN(/N=C/c2ccc(Br)cc2)CC1`, the AC40 was 6 µM.
As for `Cn1cc(Br)c(C(=O)N/N=C/c2cc3c(cc2Cl)OCO3)n1`, the figure is 9.65 µM.
With `C(=C\c1nnc(-c2cccs2)o1)/c1ccccc1`, the AC40 is 0.734 µM.
Consider `CC1CCN(C(=O)Nc2ccc3nsnc3c2)CC1`, for which the AC40 is 13.7 µM.
As for `Clc1ccc(-c2ccc(SCc3ccccn3)nn2)cc1`, the figure is 2.39 µM; as for `Cc1ccc(OCc2cc(C(=O)N3CC4C[C@@H]5CC3C[C@H](C4)C5)no2)cc1C`, 2.61 µM; as for `COc1cccc(Nc2ccc(N3CCCCC3)cc2)c1OC`, 1.48 µM.
As for `CCC(C)c1ccc(NC(=O)Nc2cccnc2)cc1` (stereo unspecified), the AC40 is 2.21 µM.
For `Cc1ccc(CSc2ccc(-c3cccs3)nn2)cc1`, the AC40 was 2.71 µM.
Take `Cc1cc(NC(=O)Nc2ccc3c(ccn3C)c2)sn1`: the AC40 was 7.89 µM.
For `Cn1c2ccccc2c(=O)c2cc(C#Cc3ccccn3)ccc21`, the AC40 is > 35 µM (inactive).
The same measure for `Cc1ccc(-c2csc(NC(=O)c3ccc(Br)cc3)c2C(=O)O)cc1`: 6.1 µM; for `CNC(=O)C(=O)Nc1nc(C23CC4CC(CC(C4)C2)C3)cs1`: 16.6 µM; for `CN(/N=C/c1ccc2c(c1)OCO2)c1ccccc1`: 1.34 µM.
As to `Cc1ccc(NCCC(=O)c2cccs2)cc1C`, the AC40 was 6.77 µM.
As for `Cc1cccc2nc(COc3ccc4ccccc4c3Br)cn12`, the AC40 was 1.27 µM.
Take `Cn1cc(Br)c(C(=O)Nc2sc3c(c2C(N)=O)CCCC3)n1`: the AC40 was 10.4 µM.
On to `Cn1c(-c2ncc(F)cc2F)cc2onc(-c3c(F)cccc3Cl)c2c1=O`, for which the AC40 was > 35 µM (inactive).
As for `CCCN(CCC)c1ncnc2c1cnn2-c1ccc(OC)cc1`, the figure is 0.256 µM; as for `Cn1c(C(=O)NCCc2c[nH]c3ccccc23)cc2sccc21`, 3.4 µM; as for `COc1ccc2c(c1OC)C(=O)N1c3ccccc3COC21` (stereo unspecified), 0.955 µM.
As for `O=C(N/C=C/c1ccccc1)c1ccccc1`, the AC40 was 0.551 µM.
Regarding `O=C(c1nnc(-c2ccc(Cl)cc2)o1)C1CCCC1`, the AC40 is 10.3 µM.
Take `COc1cccc(N(C(=O)c2nc3nccc(C)n3n2)c2nc3ccccc3s2)c1`: the AC40 is 0.495 µM.
As for `O=C1c2ccccc2NC(c2cccc(Cl)c2)N1N=C1CCCCCC1` (stereo unspecified), the figure is > 35 µM (inactive).
For the compound `COc1cc(/C=C/c2noc(-c3ccccc3O)n2)ccc1OC(C)=O`, the AC40 is 1.62 µM.
In the case of `Cc1ccccc1Nc1nc(N)nc(COC(=O)c2ccccc2)n1`, the AC40 is 7.87 µM.
Turning to `Oc1cccc(-c2nc3ccc4ccccc4c3c3c2CCC3)c1`, the AC40 is 3.02 µM.
As to `CCn1c(/C=C/c2c[nH]c3ccccc23)nc2ccccc2c1=O`, the AC40 was 0.583 µM.
For the compound `c1ccc(-c2noc(CCC3CCCC3)n2)cc1`, the AC40 is 4.35 µM.
Take `CN(C)c1ccc(/C=C/c2cccc[n+]2[O-])cc1`: the AC40 is 14.3 µM.
Turning to `C#CCSc1nnc(-c2ccc(O)cc2)o1`, the AC40 was 9.52 µM.
Regarding `Cc1ccc(C(=O)Oc2cccc(-n3cnnn3)c2)cc1`, the AC40 was 4.7 µM.
`Cc1ccc(-c2cc(-c3ccc(C)cc3O)[nH]n2)cc1`: the AC40 was 0.342 µM.
The same measure for `O=C(NCc1ccc2c(c1)OCO2)Nc1cccc(Cl)c1`: 8.57 µM; for `Nc1ccc(N=Nc2ccccc2)c(N)n1`: 14.7 µM; for `CC(C)(C)c1ccc(SCCc2ccccn2)cc1`: 1.98 µM.
For the compound `COc1ccc(-c2nnn(Cc3ccccc3F)n2)cc1`, the AC40 was 2.14 µM.
Turning to `O=C(Nc1ccccc1Cl)c1ccc2nccnc2c1`, the AC40 is 4.21 µM.
The same measure for `COc1cccc(C2Nc3ccccc3C(=O)N2c2ccc(F)cc2)c1O` (stereo unspecified): 23.8 µM; for `O=C1C(=O)N(c2ccccc2)P(=O)(N(CCCl)CCCl)N1c1ccccc1`: 16.1 µM; for `CCS(=O)(=O)c1ccc2oc(Nc3ccccc3C)nc2c1`: 3.65 µM.
Consider `O=C1CCCc2nc3c(cc21)C(O)Oc1c-3ccc2ccccc12` (stereo unspecified), for which the AC40 is 1.52 µM.
`FC(F)Oc1ccc(N=C2SCC3CCCCN23)cc1` (stereo unspecified): the AC40 was 2.53 µM.
For `CC(C)Nc1oc(-c2cccc3ccccc23)nc1C#N`, the AC40 was 9.14 µM.
For `CCCCC(=O)Nc1sc2c(c1C#N)CC(C)(C)OC2`, the AC40 was 5.29 µM.
Take `N#Cc1ccc(NC(=O)c2cccs2)nc1`: the AC40 was 16.8 µM.
Regarding `COC(=O)c1ccc(-c2ccc(Cl)cc2)nc1C`, the AC40 is 0.475 µM.
Regarding `Oc1ccc(Br)cc1/C=N/N1CCCCC1`, the AC40 was 1.75 µM.
For `Cc1noc(N)c1C(=O)Nc1ccc(C(C)(C)C)cc1`, the AC40 was 1.66 µM.
For `CC(=O)c1sc(N/N=C/c2cccc(O)c2)nc1C`, the AC40 was 2.67 µM.
Turning to `CC1CCN(c2oc(-c3ccccc3Cl)nc2C#N)CC1`, the AC40 was 10.9 µM.
